Data from ChEMBL document CHEMBL4765227, “Hit to lead optimization of a series of N-[4-(1,3-benzothiazol-2-yl)phenyl]acetamides as monoacylglycerol lipase inhibitors with potential anticancer activity” (Eur J Med Chem, 2016).

Tests used:
Format in all cases: functional
Details in all cases: read-out: GI
[1] = tested on: SF-268; assay: Growth inhibition of human SF-268 cells at 10 uM incubated for 48 hrs by sulforhodamine B assay relative to control
[2] = tested on: MDA-MB-231; assay: Growth inhibition of human MDA-MB-231 cells at 10 uM incubated for 48 hrs by sulforhodamine B assay relative to control
[3] = tested on: UACC-257; assay: Growth inhibition of human UACC-257 cells at 10 uM incubated for 48 hrs by sulforhodamine B assay relative to control
[4] = tested on: A549; assay: Growth inhibition of human A549/ATCC cells at 10 uM incubated for 48 hrs by sulforhodamine B assay relative to control
[5] = tested on: HOP-62; assay: Growth inhibition of human HOP-62 cells at 10 uM incubated for 48 hrs by sulforhodamine B assay relative to control
[6] = tested on: NCI-H226; assay: Growth inhibition of human NCI-H226 cells at 10 uM incubated for 48 hrs by sulforhodamine B assay relative to control
[7] = tested on: M14; assay: Growth inhibition of human M14 cells at 10 uM incubated for 48 hrs by sulforhodamine B assay relative to control
[8] = tested on: OVCAR-8; assay: Growth inhibition of human OVCAR-8 cells at 10 uM incubated for 48 hrs by sulforhodamine B assay relative to control
[9] = tested on: LOX IMVI; assay: Growth inhibition of human LOX IMVI cells at 10 uM incubated for 48 hrs by sulforhodamine B assay relative to control
[10] = tested on: OVCAR-4; assay: Growth inhibition of human OVCAR-4 cells at 10 uM incubated for 48 hrs by sulforhodamine B assay relative to control
[11] = tested on: MOLT-4; assay: Growth inhibition of human MOLT-4 cells at 10 uM incubated for 48 hrs by sulforhodamine B assay relative to control
[12] = tested on: HOP-92; assay: Growth inhibition of human HOP-92 cells at 10 uM incubated for 48 hrs by sulforhodamine B assay relative to control
[13] = tested on: OVCAR-5; assay: Growth inhibition of human OVCAR-5 cells at 10 uM incubated for 48 hrs by sulforhodamine B assay relative to control
[14] = tested on: SNB-75; assay: Growth inhibition of human SNB-75 cells at 10 uM incubated for 48 hrs by sulforhodamine B assay relative to control
[15] = tested on: HL-60(TB); assay: Growth inhibition of human HL-60(TB) cells at 10 uM incubated for 48 hrs by sulforhodamine B assay relative to control
[16] = tested on: KM12; assay: Growth inhibition of human KM12 cells at 10 uM incubated for 48 hrs by sulforhodamine B assay relative to control
[17] = tested on: PC-3; assay: Growth inhibition of human PC-3 cells at 10 uM incubated for 48 hrs by sulforhodamine B assay relative to control
[18] = tested on: RPMI-8226; assay: Growth inhibition of human RPMI-8226 cells at 10 uM incubated for 48 hrs by sulforhodamine B assay relative to control
[19] = tested on: COLO 205; assay: Growth inhibition of human COLO 205 cells at 10 uM incubated for 48 hrs by sulforhodamine B assay relative to control
[20] = tested on: NCI/ADR-RES; assay: Growth inhibition of human NCI/ADR-RES cells at 10 uM incubated for 48 hrs by sulforhodamine B assay relative to control
[21] = tested on: MCF7; assay: Growth inhibition of human MCF7 cells at 10 uM incubated for 48 hrs by sulforhodamine B assay relative to control
[22] = tested on: HCT-15; assay: Growth inhibition of human HCT-15 cells at 10 uM incubated for 48 hrs by sulforhodamine B assay relative to control
[23] = tested on: SR; assay: Growth inhibition of human SR cells at 10 uM incubated for 48 hrs by sulforhodamine B assay relative to control
[24] = tested on: UO-31; assay: Growth inhibition of human UO-31 cells at 10 uM incubated for 48 hrs by sulforhodamine B assay relative to control
[25] = tested on: NCI-H322M; assay: Growth inhibition of human NCI-H322M cells at 10 uM incubated for 48 hrs by sulforhodamine B assay relative to control
[26] = tested on: Malme-3M; assay: Growth inhibition of human Malme-3M cells at 10 uM incubated for 48 hrs by sulforhodamine B assay relative to control
[27] = tested on: SW-620; assay: Growth inhibition of human SW-620 cells at 10 uM incubated for 48 hrs by sulforhodamine B assay relative to control
[28] = tested on: CAKI-1; assay: Growth inhibition of human CAKI-1 cells at 10 uM incubated for 48 hrs by sulforhodamine B assay relative to control
[29] = tested on: SF-295; assay: Growth inhibition of human SF-295 cells at 10 uM incubated for 48 hrs by sulforhodamine B assay relative to control
[30] = tested on: NCI-H522; assay: Growth inhibition of human NCI-H522 cells at 10 uM incubated for 48 hrs by sulforhodamine B assay relative to control
[31] = tested on: Hs-578T; assay: Growth inhibition of human Hs-578T cells at 10 uM incubated for 48 hrs by sulforhodamine B assay relative to control
[32] = tested on: OVCAR-3; assay: Growth inhibition of human OVCAR-3 cells at 10 uM incubated for 48 hrs by sulforhodamine B assay relative to control
[33] = tested on: DU-145; assay: Growth inhibition of human DU-145 cells at 10 uM incubated for 48 hrs by sulforhodamine B assay relative to control
[34] = tested on: U-251; assay: Growth inhibition of human U-251 cells at 10 uM incubated for 48 hrs by sulforhodamine B assay relative to control
[35] = tested on: SN12C; assay: Growth inhibition of human SN12C cells at 10 uM incubated for 48 hrs by sulforhodamine B assay relative to control
[36] = tested on: HT-29; assay: Growth inhibition of human HT-29 cells at 10 uM incubated for 48 hrs by sulforhodamine B assay relative to control
[37] = tested on: HCC 2998; assay: Growth inhibition of human HCC 2998 cells at 10 uM incubated for 48 hrs by sulforhodamine B assay relative to control
[38] = tested on: MDA-MB-468; assay: Growth inhibition of human MDA-MB-468 cells at 10 uM incubated for 48 hrs by sulforhodamine B assay relative to control
[39] = tested on: NCI-H23; assay: Growth inhibition of human NCI-H23 cells at 10 uM incubated for 48 hrs by sulforhodamine B assay relative to control
[40] = tested on: SF-539; assay: Growth inhibition of human SF-539 cells at 10 uM incubated for 48 hrs by sulforhodamine B assay relative to control
[41] = tested on: ACHN; assay: Growth inhibition of human ACHN cells at 10 uM incubated for 48 hrs by sulforhodamine B assay relative to control
[42] = tested on: RXF 393; assay: Growth inhibition of human RXF 393 cells at 10 uM incubated for 48 hrs by sulforhodamine B assay relative to control
[43] = tested on: HCT-116; assay: Growth inhibition of human HCT-116 cells at 10 uM incubated for 48 hrs by sulforhodamine B assay relative to control
[44] = tested on: 786-0; assay: Growth inhibition of human 786-0 cells at 10 uM incubated for 48 hrs by sulforhodamine B assay relative to control

Compound `O=C(Cn1nnc2ccccc21)Nc1ccc(-c2nc3ccccc3s2)cc1` has an inhibition of growth at 10 µM [1] of 7.63%, an inhibition of growth at 10 µM [2] of 5.25% and an inhibition of growth at 10 µM [3] of 5.5%. The inhibition of growth at 10 µM [4] was 6.45%, the inhibition of growth at 10 µM [5] was -1.24% and the inhibition of growth at 10 µM [6] was 32.5%. The inhibition of growth at 10 µM [7] was 9.36%, the inhibition of growth at 10 µM [8] was 1.53% and the inhibition of growth at 10 µM [9] was 15.8%. It also gave an inhibition of growth at 10 µM [10] of 27.8%, an inhibition of growth at 10 µM [11] of 38.4% and an inhibition of growth at 10 µM [12] of 26.9%. It also gave an inhibition of growth at 10 µM [13] of -4.45%, an inhibition of growth at 10 µM [14] of -6.26% and an inhibition of growth at 10 µM [15] of 9.24%. It also gave an inhibition of growth at 10 µM [16] of 8.6%, an inhibition of growth at 10 µM [17] of 16.7% and an inhibition of growth at 10 µM [18] of 14.7%. It also gave an inhibition of growth at 10 µM [19] of -5.13%, an inhibition of growth at 10 µM [20] of 3.77% and an inhibition of growth at 10 µM [21] of 71.1%. The inhibition of growth at 10 µM [22] was 8.49%, the inhibition of growth at 10 µM [23] was 59.9% and the inhibition of growth at 10 µM [24] was 13.5%. For the same compound, the inhibition of growth at 10 µM [25] was -2.72%, the inhibition of growth at 10 µM [26] was 3.07% and the inhibition of growth at 10 µM [27] was 5.47%. It also gave an inhibition of growth at 10 µM [28] of 14.5%, an inhibition of growth at 10 µM [29] of 15.2% and an inhibition of growth at 10 µM [30] of 20.8%. It also gave an inhibition of growth at 10 µM [31] of -11.5%, an inhibition of growth at 10 µM [32] of 9.56% and an inhibition of growth at 10 µM [33] of 26%. The inhibition of growth at 10 µM [34] was 10.4%, the inhibition of growth at 10 µM [35] was -0.79% and the inhibition of growth at 10 µM [36] was -0.75%. For the same compound, the inhibition of growth at 10 µM [37] was 6.26%, the inhibition of growth at 10 µM [38] was 124% and the inhibition of growth at 10 µM [39] was 19.3%. The inhibition of growth at 10 µM [40] was 28.8%, the inhibition of growth at 10 µM [41] was -9.93% and the inhibition of growth at 10 µM [42] was 0.05%. For the same compound, the inhibition of growth at 10 µM [43] was 2.6% and the inhibition of growth at 10 µM [44] was 5.01%.
With `O=C(Cn1cnc2ccccc21)Nc1ccc(-c2nc3ccccc3s2)cc1` the inhibition of growth at 10 µM [1] was 14.7%, the inhibition of growth at 10 µM [2] was 9.34% and the inhibition of growth at 10 µM [3] was 37.9%. For the same compound, the inhibition of growth at 10 µM [4] was 39%, the inhibition of growth at 10 µM [5] was 12.6% and the inhibition of growth at 10 µM [6] was 36.9%. For the same compound, the inhibition of growth at 10 µM [7] was 13.6%, the inhibition of growth at 10 µM [8] was 28% and the inhibition of growth at 10 µM [9] was 44.6%. The inhibition of growth at 10 µM [10] was 57.9%, the inhibition of growth at 10 µM [11] was 44.2% and the inhibition of growth at 10 µM [12] was 18.4%. The inhibition of growth at 10 µM [13] was -5.63%, the inhibition of growth at 10 µM [14] was 6.6% and the inhibition of growth at 10 µM [15] was 29.8%. The inhibition of growth at 10 µM [16] was 24.9%, the inhibition of growth at 10 µM [17] was 33.3% and the inhibition of growth at 10 µM [18] was 62.6%. The inhibition of growth at 10 µM [19] was 22.5%, the inhibition of growth at 10 µM [20] was 38.9% and the inhibition of growth at 10 µM [21] was 50.6%. For the same compound, the inhibition of growth at 10 µM [22] was 7.41%, the inhibition of growth at 10 µM [23] was 60% and the inhibition of growth at 10 µM [24] was 35.4%. It also gave an inhibition of growth at 10 µM [25] of 8.06%, an inhibition of growth at 10 µM [26] of 18.9% and an inhibition of growth at 10 µM [27] of 15.2%. The inhibition of growth at 10 µM [28] was 38.1%, the inhibition of growth at 10 µM [29] was 56.7% and the inhibition of growth at 10 µM [30] was 33.4%. For the same compound, the inhibition of growth at 10 µM [31] was 8.79%, the inhibition of growth at 10 µM [32] was 35.8% and the inhibition of growth at 10 µM [33] was 21.8%. It also gave an inhibition of growth at 10 µM [34] of 30.6%, an inhibition of growth at 10 µM [35] of 16.2% and an inhibition of growth at 10 µM [36] of 12.7%. The inhibition of growth at 10 µM [37] was 24.9%, the inhibition of growth at 10 µM [38] was 70.3% and the inhibition of growth at 10 µM [39] was 51.5%. The inhibition of growth at 10 µM [40] was 22.9%, the inhibition of growth at 10 µM [41] was 15.5% and the inhibition of growth at 10 µM [42] was 6.89%. The inhibition of growth at 10 µM [43] was 56.5% and the inhibition of growth at 10 µM [44] was 20.5%.
